This is an account of results in patent US10537563B2, “Methods for treating ocular disease using inhibitors of CSF-1R” (NOVARTIS AG, priority 2016, dated 2020).

One assay deals with Chk1 (Homo sapiens, UniProt O14757). Put plainly: In vitro kinase assay (Table 1). The format is biochemical.
For a further assay, the target named is PHKG2 (Homo sapiens, UniProt P15735). Put plainly: In vitro kinase assay (Table 1). Format: biochemical.
Another assay has as its target PKC_alpha (Homo sapiens, UniProt P17252). Kind of assay: In vitro kinase assay (Table 1). Format: biochemical.
A further assay has as its target Syk (Homo sapiens, UniProt P43405). Put plainly: In vitro kinase assay (Table 1). The format is biochemical.
The target in another assay is T1, BaF-NPM-ALK (Homo sapiens, UniProt Q9UM73).
T1 construct: expressed in transfected cells; host or cells: BaF3 (murine pro-B cell line); the other entry of the earlier key: NPM1 (P06748, Nucleophosmin)
Put plainly: BaF3 proliferation assay. Format: cell-based, murine.

A further assay concerns BaF-wt. Kind of assay: BaF3 proliferation assay. The format is cell-based, murine. The conditions noted are these: Mus musculus.
Another assay concerns the target T2, BAF/Tel-Tie1-Q2/sACP (Homo sapiens, UniProt P35590).
T2 construct: fused on or other part: P41212 (Transcription factor ETV6)
Kind of assay: BaF3 proliferation assay. Format: cell-based, murine.

The next assay concerns the target T3, BAF/Tel-TIE2-1.2/sACP (Homo sapiens, UniProt Q02763).
T3 construct: fused on or other part: P41212 (Transcription factor ETV6)
Put plainly: BaF3 proliferation assay. The format is cell-based, murine.

Another assay concerns the target T4, BAF/Tel-RET-Q1/sACP (Homo sapiens, UniProt P07949).
T4 construct: fused on or other part: P41212 (Transcription factor ETV6)
Put plainly: BaF3 proliferation assay. The format is cell-based, murine.

The next assay has as its target T5, BAF/Tel-MET-3.1/sACP (Homo sapiens, UniProt P08581).
T5 construct: fused on or other part: P41212 (Transcription factor ETV6)
Kind of assay: BaF3 proliferation assay. The format is cell-based, murine.

A further assay deals with T6, BAF/Tel-MER-3.2 (Homo sapiens, UniProt Q12866).
T6 construct: fused on or other part: P41212 (Transcription factor ETV6)
Put plainly: BaF3 proliferation assay. Format: cell-based, murine.

A further assay concerns the target T7, BAF/Tel-JAK3-S1.2/sACP (Homo sapiens, UniProt P52333).
T7 construct: fused on or other part: P41212 (Transcription factor ETV6)
Put plainly: BaF3 proliferation assay. The format is cell-based, murine.

A further assay concerns the target T8, BAF/Tel-ZAP70-1.1/sACP (Homo sapiens, UniProt P43403).
T8 construct: fused on or other part: P41212 (Transcription factor ETV6)
Kind of assay: BaF3 proliferation assay. Format: cell-based, murine.

The subject of another assay is MMP-9. Kind of assay: MMP-9 production by human macrophages (ELISA). Format: cell-based. The conditions noted are these: low dose (0.1 μM). Here is the method:
(§1) Freshly isolated human PBMCs were used to purify human monocytes by negative selection using an indirect magnetic labeling system. […] Soluble factors such as cytokines (VEGFa, IL-6 etc.) and chemokines (IL-8, MCP-1, MMP9 etc.) in the culture supernatant were measured using commercial ELISA kits. The in vitro survival of human macrophages was measured using a commercially available CellTiter-Glo® system. Most observed results were repeated in multiple donors (n>5).

The next assay has as its system human monocytes. Put plainly: Human monocyte survival in culture. Format: cell-based. To be noted: concentration dependent effect. Here is the method:
as §1

The test system of the next assay is CD206. Kind of assay: CD206 expression in M2a macrophages. The format is cell-based, human. Here is the method:
as §1

Another assay concerns IL-8. Put plainly: IL-8 production by human monocytes (ELISA). The format is cell-based. To be noted: Monocyte. Here is the method: as §1

T2 sequence (P35590 839-1118 limits assumed, change not shown): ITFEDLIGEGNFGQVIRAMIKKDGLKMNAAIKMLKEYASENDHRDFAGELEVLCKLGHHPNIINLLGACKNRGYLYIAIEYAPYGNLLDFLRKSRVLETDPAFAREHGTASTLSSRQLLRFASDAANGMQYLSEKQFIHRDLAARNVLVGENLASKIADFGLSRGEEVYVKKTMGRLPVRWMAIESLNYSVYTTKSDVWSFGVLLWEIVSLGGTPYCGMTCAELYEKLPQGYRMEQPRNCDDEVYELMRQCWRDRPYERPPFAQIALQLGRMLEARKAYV
T7 sequence (P52333 822-1111 limits assumed, change not shown): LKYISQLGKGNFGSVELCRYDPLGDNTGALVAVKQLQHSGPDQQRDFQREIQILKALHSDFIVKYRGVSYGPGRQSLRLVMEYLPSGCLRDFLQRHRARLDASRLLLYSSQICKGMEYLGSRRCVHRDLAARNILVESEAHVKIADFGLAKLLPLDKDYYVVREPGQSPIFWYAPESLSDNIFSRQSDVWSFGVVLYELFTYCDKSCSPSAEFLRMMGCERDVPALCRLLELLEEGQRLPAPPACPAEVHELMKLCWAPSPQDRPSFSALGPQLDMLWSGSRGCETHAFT
T1 sequence (Q9UM73 with tags, fused parts or gaps): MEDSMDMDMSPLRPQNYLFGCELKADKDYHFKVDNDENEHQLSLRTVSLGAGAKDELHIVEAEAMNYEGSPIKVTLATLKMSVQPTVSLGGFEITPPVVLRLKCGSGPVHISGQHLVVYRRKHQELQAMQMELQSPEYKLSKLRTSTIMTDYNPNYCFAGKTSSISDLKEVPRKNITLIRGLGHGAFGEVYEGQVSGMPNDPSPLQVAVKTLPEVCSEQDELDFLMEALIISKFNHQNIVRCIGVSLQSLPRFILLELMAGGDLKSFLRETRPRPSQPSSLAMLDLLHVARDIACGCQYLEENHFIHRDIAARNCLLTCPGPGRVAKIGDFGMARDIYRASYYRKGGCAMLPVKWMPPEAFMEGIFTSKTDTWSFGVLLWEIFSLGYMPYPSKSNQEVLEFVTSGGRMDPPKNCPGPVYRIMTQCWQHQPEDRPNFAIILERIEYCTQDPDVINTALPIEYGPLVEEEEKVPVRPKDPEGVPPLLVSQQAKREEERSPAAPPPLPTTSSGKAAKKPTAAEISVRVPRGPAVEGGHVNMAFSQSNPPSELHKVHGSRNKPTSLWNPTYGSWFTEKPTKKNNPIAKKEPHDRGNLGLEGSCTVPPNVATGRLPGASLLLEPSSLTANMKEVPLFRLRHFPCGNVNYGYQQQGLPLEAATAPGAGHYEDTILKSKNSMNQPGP
T6 sequence (Q12866 587-858 limits assumed, change not shown): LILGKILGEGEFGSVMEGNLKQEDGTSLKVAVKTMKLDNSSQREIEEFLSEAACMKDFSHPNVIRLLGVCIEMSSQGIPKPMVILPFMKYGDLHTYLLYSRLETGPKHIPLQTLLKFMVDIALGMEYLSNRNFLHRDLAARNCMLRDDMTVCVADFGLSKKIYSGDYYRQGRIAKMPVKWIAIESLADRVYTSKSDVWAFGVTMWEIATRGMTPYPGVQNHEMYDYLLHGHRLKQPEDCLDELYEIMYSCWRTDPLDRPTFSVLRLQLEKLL
T4 sequence (P07949 724-1016 limits assumed, change not shown): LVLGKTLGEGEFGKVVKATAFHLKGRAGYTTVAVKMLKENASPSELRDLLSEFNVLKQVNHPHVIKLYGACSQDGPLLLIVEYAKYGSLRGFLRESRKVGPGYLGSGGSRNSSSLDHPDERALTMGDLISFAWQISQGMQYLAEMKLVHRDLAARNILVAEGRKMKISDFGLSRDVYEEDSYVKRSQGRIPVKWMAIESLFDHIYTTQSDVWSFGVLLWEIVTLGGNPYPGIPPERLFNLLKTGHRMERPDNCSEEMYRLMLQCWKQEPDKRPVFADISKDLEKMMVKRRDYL
T8 sequence (P43403 338-600 limits assumed, change not shown): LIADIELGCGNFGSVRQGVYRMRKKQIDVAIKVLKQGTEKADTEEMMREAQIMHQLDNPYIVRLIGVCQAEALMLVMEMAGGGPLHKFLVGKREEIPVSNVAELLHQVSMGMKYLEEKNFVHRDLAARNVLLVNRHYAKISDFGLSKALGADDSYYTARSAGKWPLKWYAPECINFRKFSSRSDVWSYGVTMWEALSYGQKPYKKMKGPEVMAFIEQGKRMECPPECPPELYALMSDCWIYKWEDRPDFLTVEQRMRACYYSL
Sequence of Chk1 (O14757 whole entry, species assumed): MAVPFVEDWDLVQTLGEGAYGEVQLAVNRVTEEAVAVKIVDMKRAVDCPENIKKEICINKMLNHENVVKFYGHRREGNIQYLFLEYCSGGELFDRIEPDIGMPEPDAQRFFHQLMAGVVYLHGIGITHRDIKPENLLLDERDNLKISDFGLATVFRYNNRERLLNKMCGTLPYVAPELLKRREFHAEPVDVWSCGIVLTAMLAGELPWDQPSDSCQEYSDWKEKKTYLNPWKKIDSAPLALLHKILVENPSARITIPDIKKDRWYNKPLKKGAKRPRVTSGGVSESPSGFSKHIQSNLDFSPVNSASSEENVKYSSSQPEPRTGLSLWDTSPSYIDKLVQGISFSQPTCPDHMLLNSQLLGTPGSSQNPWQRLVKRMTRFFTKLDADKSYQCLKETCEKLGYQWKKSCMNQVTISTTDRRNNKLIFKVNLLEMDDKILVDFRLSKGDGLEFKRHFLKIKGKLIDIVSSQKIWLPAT
Sequence of PHKG2 (P15735 whole entry, species assumed): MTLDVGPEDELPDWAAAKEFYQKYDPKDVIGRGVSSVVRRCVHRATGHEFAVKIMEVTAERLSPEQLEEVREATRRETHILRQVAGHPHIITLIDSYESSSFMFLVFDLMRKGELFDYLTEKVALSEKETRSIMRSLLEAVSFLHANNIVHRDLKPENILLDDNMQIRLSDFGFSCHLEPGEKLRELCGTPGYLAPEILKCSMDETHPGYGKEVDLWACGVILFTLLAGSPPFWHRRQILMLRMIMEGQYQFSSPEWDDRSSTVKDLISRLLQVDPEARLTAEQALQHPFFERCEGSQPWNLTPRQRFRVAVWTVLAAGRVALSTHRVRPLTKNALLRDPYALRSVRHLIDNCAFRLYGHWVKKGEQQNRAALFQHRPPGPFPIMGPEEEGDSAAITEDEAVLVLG
T3 sequence (Q02763 824-1096 limits assumed, change not shown): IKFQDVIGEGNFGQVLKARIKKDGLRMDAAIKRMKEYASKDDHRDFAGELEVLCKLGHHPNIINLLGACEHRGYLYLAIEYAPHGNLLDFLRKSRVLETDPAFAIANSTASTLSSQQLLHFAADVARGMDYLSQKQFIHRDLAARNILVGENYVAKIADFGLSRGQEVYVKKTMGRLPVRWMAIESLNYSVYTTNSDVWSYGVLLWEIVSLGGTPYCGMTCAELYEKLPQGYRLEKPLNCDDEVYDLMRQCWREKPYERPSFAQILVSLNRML
T5 sequence (P08581 1078-1345 limits assumed, change not shown): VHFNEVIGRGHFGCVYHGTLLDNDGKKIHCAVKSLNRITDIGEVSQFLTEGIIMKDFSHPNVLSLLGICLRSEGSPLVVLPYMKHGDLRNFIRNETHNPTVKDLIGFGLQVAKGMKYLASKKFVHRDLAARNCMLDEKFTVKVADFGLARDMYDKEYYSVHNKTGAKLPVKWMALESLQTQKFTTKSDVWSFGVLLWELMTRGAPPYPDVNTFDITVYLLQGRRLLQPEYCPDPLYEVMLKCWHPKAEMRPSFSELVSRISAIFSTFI

With `CNC(=O)c1cc(Oc2ccc3nc(NC4CCCCC4O)sc3c2)ccn1` (centres unmarked) [Compound (I)], the IC50 on Chk1, on PHKG2, against PKC_alpha and against Syk was more than 10 µM throughout. Besides, the concentration for a half-maximal effect (EC50) on BaF-NPM-ALK, in the assay with BaF-wt, on BAF/Tel-Tie1-Q2/sACP, on BAF/Tel-TIE2-1.2/sACP, on BAF/Tel-RET-Q1/sACP and at BAF/Tel-MET-3.1/sACP was more than 10 µM throughout. Further, the EC50 on BAF/Tel-MER-3.2, at BAF/Tel-JAK3-S1.2/sACP and on BAF/Tel-ZAP70-1.1/sACP was more than 10 µM in each case. In addition, in the assay with MMP-9, the “MMP-9 production by human macrophages” value is “downregulated”. Also, the “concentration at which monocyte survival was significantly affected” value with human monocytes was not below 0.6 µM. In the assay on CD206, the “CD206 expression in M2a” value is given as “dose-dependently decreased”. This compound also came in with an inhibition at 0.05 µM with IL-8 of 7 to 90%.
